Reference: ChEMBL document CHEMBL3865781, “Recent advances in the discovery and development of antibacterial agents targeting the cell-division protein FtsZ” (Bioorg Med Chem, 2016)
Converted amounts (≈) assume the structure as drawn.

What follows are molecules tested on Staphylococcus aureus (assay: Antibacterial activity against Staphylococcus aureus ATCC 29213 after 18 hrs by broth microdilution assay). Conditions: ATCC 29213, 18 h.
Format: functional

| SMILES | MIC |
| --- | --- |
| CC(C)(C)c1ccc(-c2ncnc3c(CNC(=N)N)cccc23)cc1 | 449 µM (≈ 150 µg/mL) |
| CCC(CC)c1cc([C@H]2CN3CC[C@H]2C[C@@H]3CN)nc(-c2ccncc2)n1 | 24.6 µM (≈ 8.99 µg/mL) |

What follows are molecules tested on Escherichia coli (assay: Antibacterial activity against Escherichia coli ATCC 25922 after 18 hrs by broth microdilution assay). Conditions: ATCC 25922, 18 h.
Format: functional

| SMILES | MIC |
| --- | --- |
| CC(C)(C)c1ccc(-c2ncnc3c(CNC(=N)N)cccc23)cc1 | 897 µM (≈ 299 µg/mL) |
| CCC(CC)c1cc([C@H]2CN3CC[C@H]2C[C@@H]3CN)nc(-c2ccncc2)n1 | 49.6 µM (≈ 18.1 µg/mL) |

The molecules below were run on Mycobacterium tuberculosis (assay: Antibacterial activity against Mycobacterium tuberculosis H37Rv measured every 24 hrs for 7 days by MABA assay). Conditions: not given.
Format: functional

| SMILES | MIC99 |
| --- | --- |
| CN(C)c1cc2[nH]c(C3CCCCC3)nc2cc1NC(=O)c1ccc(C(F)(F)F)cc1F | 0.18 µg/mL (≈ 0.401 µM) |
| CCc1ccc(C(=O)Nc2cc3nc(C4CCCCC4)[nH]c3cc2N(C)C)cc1 | 0.16 µg/mL (≈ 0.41 µM) |
| CN(C)c1cc2[nH]c(C3CCCCC3)nc2cc1NC(=O)c1ccc(OC(F)(F)F)cc1F | 0.31 µg/mL (≈ 0.667 µM) |
| CCCCOC(=O)Nc1cc2nc(C3CCCCC3)[nH]c2cc1N(C)C | 0.06 µg/mL (≈ 0.167 µM) |
| CCCCOC(=O)Nc1cc2nc(C3CCCCC3)[nH]c2cc1N1CCCC1 | 0.39 µg/mL (≈ 1.01 µM) |

What follows are molecules tested on Mycobacterium tuberculosis (assay: Antibacterial activity against Mycobacterium tuberculosis NHN382 clinical isolates measured every 24 hrs for 7 days by MABA assay). Conditions: not given.
Format: functional

| SMILES | MIC99 |
| --- | --- |
| CN(C)c1cc2[nH]c(C3CCCCC3)nc2cc1NC(=O)c1ccc(C(F)(F)F)cc1F | 0.16 µg/mL (≈ 0.357 µM) |
| CCc1ccc(C(=O)Nc2cc3nc(C4CCCCC4)[nH]c3cc2N(C)C)cc1 | 0.16 µg/mL (≈ 0.41 µM) |
| CN(C)c1cc2[nH]c(C3CCCCC3)nc2cc1NC(=O)c1ccc(OC(F)(F)F)cc1F | 0.31 µg/mL (≈ 0.667 µM) |
| CCCCOC(=O)Nc1cc2nc(C3CCCCC3)[nH]c2cc1N(C)C | 0.06 µg/mL (≈ 0.167 µM) |
| CCCCOC(=O)Nc1cc2nc(C3CCCCC3)[nH]c2cc1N1CCCC1 | 0.31 µg/mL (≈ 0.806 µM) |

What follows are molecules tested on Mycobacterium tuberculosis (assay: Antibacterial activity against Mycobacterium tuberculosis TN587 clinical isolates measured every 24 hrs for 7 days by MABA assay). Conditions: not given.
Format: functional

| SMILES | MIC99 |
| --- | --- |
| CN(C)c1cc2[nH]c(C3CCCCC3)nc2cc1NC(=O)c1ccc(C(F)(F)F)cc1F | 0.24 µg/mL (≈ 0.535 µM) |
| CCc1ccc(C(=O)Nc2cc3nc(C4CCCCC4)[nH]c3cc2N(C)C)cc1 | 0.16 µg/mL (≈ 0.41 µM) |
| CN(C)c1cc2[nH]c(C3CCCCC3)nc2cc1NC(=O)c1ccc(OC(F)(F)F)cc1F | 0.31 µg/mL (≈ 0.667 µM) |
| CCCCOC(=O)Nc1cc2nc(C3CCCCC3)[nH]c2cc1N(C)C | 0.13 µg/mL (≈ 0.363 µM) |
| CCCCOC(=O)Nc1cc2nc(C3CCCCC3)[nH]c2cc1N1CCCC1 | 0.16 µg/mL (≈ 0.416 µM) |

The molecules below were run on Mycobacterium tuberculosis (assay: Antibacterial activity against Mycobacterium tuberculosis W210 clinical isolates measured every 24 hrs for 7 days by MABA assay). Conditions: not given.
Format: functional

| SMILES | MIC99 |
| --- | --- |
| CN(C)c1cc2[nH]c(C3CCCCC3)nc2cc1NC(=O)c1ccc(C(F)(F)F)cc1F | 0.31 µg/mL (≈ 0.691 µM) |
| CCc1ccc(C(=O)Nc2cc3nc(C4CCCCC4)[nH]c3cc2N(C)C)cc1 | 0.16 µg/mL (≈ 0.41 µM) |
| CN(C)c1cc2[nH]c(C3CCCCC3)nc2cc1NC(=O)c1ccc(OC(F)(F)F)cc1F | 0.47 µg/mL (≈ 1.01 µM) |
| CCCCOC(=O)Nc1cc2nc(C3CCCCC3)[nH]c2cc1N(C)C | 0.06 µg/mL (≈ 0.167 µM) |
| CCCCOC(=O)Nc1cc2nc(C3CCCCC3)[nH]c2cc1N1CCCC1 | 0.63 µg/mL (≈ 1.64 µM) |

Each molecule was assayed on Mycobacterium tuberculosis (assay: Antibacterial activity against Mycobacterium tuberculosis NHN20 clinical isolates measured every 24 hrs for 7 days by MABA assay). Conditions: not given.
Format: functional

| SMILES | MIC99 |
| --- | --- |
| CN(C)c1cc2[nH]c(C3CCCCC3)nc2cc1NC(=O)c1ccc(C(F)(F)F)cc1F | 0.16 µg/mL (≈ 0.357 µM) |
| CN(C)c1cc2[nH]c(C3CCCCC3)nc2cc1NC(=O)c1ccc(OC(F)(F)F)cc1F | 0.24 µg/mL (≈ 0.517 µM) |

These molecules were tested on Mycobacterium tuberculosis (assay: In vivo antibacterial activity against Mycobacterium tuberculosis str. Erdman infected in C57BL/6 mouse assessed as reduction in bacterial load in lungs at 50 mg/kg, ip bid on day 5 to 14 post infection measured on day 15 post infection). Conditions: not given.
Format: functional, Erdman = ATCC 35801

| SMILES | Activity |
| --- | --- |
| CN(C)c1cc2[nH]c(C3CCCCC3)nc2cc1NC(=O)c1ccc(C(F)(F)F)cc1F | 5.7 - 6.3 log10CFU |
| CN(C)c1cc2[nH]c(C3CCCCC3)nc2cc1NC(=O)c1ccc(OC(F)(F)F)cc1F | 5.7 - 6.3 log10CFU |

The molecules below were run on Mycobacterium tuberculosis (assay: In vivo antibacterial activity against Mycobacterium tuberculosis H37Rv infected in GKO-TB mouse assessed as reduction in bacterial load in spleen at 50 mg/kg, ip or po bid for 10 consecutive days). Conditions: not given.
Format: functional

| SMILES | Activity |
| --- | --- |
| CN(C)c1cc2[nH]c(C3CCCCC3)nc2cc1NC(=O)c1ccc(C(F)(F)F)cc1F | 3.9 - 5 log10CFU |
| CN(C)c1cc2[nH]c(C3CCCCC3)nc2cc1NC(=O)c1ccc(OC(F)(F)F)cc1F | 3.9 - 5 log10CFU |

Each molecule was assayed on Mycobacterium tuberculosis (assay: Antimycobacterial activity against Mycobacterium tuberculosis H37Rv after 2 weeks). Conditions: 336 h.
Format: functional

| SMILES | MIC |
| --- | --- |
| O=c1ccc2ccc(O)cc2o1 [UMBELLIFERONE] | 58 µg/mL (≈ 358 µM) |
| O=c1ccc2cc(CCO)c(O)cc2o1 | 60 µg/mL (≈ 291 µM) |

What follows are molecules tested against T1, Cell division protein FtsZ (Staphylococcus aureus, UniProt P0A031) (assay: Inhibition of Staphylococcus aureus ATCC 29213 N-terminal His6-tagged FtsZ GTPase activity expressed in Escherichia coli BL21(DE3) assessed as reduction in inorganic phosphate release preincubated for 10 mins followed by GTP addition after 30 mins). Conditions: not given.
T1 sequence (P0A031 whole entry): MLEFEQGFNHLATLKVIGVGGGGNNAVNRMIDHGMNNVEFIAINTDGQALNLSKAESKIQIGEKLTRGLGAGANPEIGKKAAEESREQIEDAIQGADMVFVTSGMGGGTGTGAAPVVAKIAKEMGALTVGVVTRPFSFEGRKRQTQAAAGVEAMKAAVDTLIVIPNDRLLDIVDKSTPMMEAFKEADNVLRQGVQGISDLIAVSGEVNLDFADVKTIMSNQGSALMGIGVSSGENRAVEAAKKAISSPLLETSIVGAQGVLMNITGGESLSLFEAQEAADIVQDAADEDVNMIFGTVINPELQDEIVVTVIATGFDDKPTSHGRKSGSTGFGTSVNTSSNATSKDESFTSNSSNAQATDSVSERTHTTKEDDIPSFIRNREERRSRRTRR

| SMILES | IC50 |
| --- | --- |
| CC(C)(C)c1ccc(-c2ncnc3c(CNC(=N)N)cccc23)cc1 | 317 µM |
| CCC(CC)c1cc([C@H]2CN3CC[C@H]2C[C@@H]3CN)nc(-c2ccncc2)n1 | 37.5 µM |
